This passage reports IC50 results from patent publication US10336761B2, “TGFβ receptor antagonist” (BRISTOL-MYERS SQUIBB COMPANY, priority 2015, dated 2019).

The assay deals with HIS-TGFβR1 T204D (Homo sapiens (Human), UniProt P36897, T204D). The assay can be described thus: HTRF probe-displacement assay, HIS-TGFβR1 T204D. It is filed as binding. The settings on record: 1 hour at room temperature.
Sequence of HIS-TGFβR1 T204D (P36897 34-503 T204D): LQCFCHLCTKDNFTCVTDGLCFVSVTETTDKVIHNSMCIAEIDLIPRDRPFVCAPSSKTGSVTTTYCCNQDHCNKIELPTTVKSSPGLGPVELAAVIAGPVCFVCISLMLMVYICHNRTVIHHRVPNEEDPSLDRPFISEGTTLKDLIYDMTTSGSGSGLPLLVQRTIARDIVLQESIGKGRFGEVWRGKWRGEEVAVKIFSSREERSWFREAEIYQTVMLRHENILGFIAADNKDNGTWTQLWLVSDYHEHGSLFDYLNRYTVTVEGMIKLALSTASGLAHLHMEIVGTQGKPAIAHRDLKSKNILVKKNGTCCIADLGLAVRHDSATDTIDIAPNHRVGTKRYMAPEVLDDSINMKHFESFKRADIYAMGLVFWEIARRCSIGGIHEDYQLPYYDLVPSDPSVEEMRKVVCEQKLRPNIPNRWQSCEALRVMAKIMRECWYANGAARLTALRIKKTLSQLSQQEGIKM

As for `Fc1cnccc1Nc1nc(-c2ccccn2)nn2ccc(CNCC3CCNCC3)c12` [Example 238, 3-fluoro-N-(5-{[(piperidin-4-ylmethyl)amino]methyl}-2-(pyridin-2-yl)pyrrolo[2,1-f][1,2,4]triazin-4-yl)pyridin-4-amine], the IC50 worked out at 2.9 nM. This lies in the single-digit nanomolar range. Molecule `CC(O)CNCc1ccn2nc(-c3ccccn3)nc(Nc3ccncc3F)c12` (stereo not drawn) [Example 239, 1-[({4-[(3-fluoropyridin-4-yl)amino]-2-(pyridin-2-yl)pyrrolo[2,1-f][1,2,4]triazin-5-yl}methyl)amino]propan-2-ol] returned an IC50 of 1.2 nM. The result for `OC1(CCNCc2ccn3nc(-c4ccccn4)nc(Nc4ccncc4F)c23)CCCC1` [Example 240, 1-{2-[({4-[(3-fluoropyridin-4-yl)amino]-2-(pyridin-2-yl)pyrrolo[2,1-f][1,2,4]triazin-5-yl}methyl)amino]ethyl}cyclopentan-1-ol] reads 0.7 nM; that for `CC1(NCc2ccn3nc(-c4ccccn4)nc(Nc4ccncc4F)c23)CCC1` [Example 241, 3-fluoro-N-(5-{[(1-methylcyclobutyl)amino]methyl}-2-(pyridin-2-yl)pyrrolo[2,1-f][1,2,4]triazin-4-yl)pyridin-4-amine], 0.27 nM; that for `CC1(NCc2ccn3nc(-c4ccccn4)nc(Nc4ccncc4F)c23)CCOCC1` [Example 242, 3-fluoro-N-(5-{[(4-methyloxan-4-yl)amino]methyl}-2-(pyridin-2-yl)pyrrolo[2,1-f][1,2,4]triazin-4-yl)pyridin-4-amine], less than 0.76 nM. For the molecule `OC1CCN(Cc2ccn3nc(-c4ccccn4)nc(Nc4ccncc4F)c23)CC1` [Example 243, 1-({4-[(3-fluoropyridin-4-yl)amino]-2-(pyridin-2-yl)pyrrolo[2,1-f][1,2,4]triazin-5-yl}methyl)piperidin-4-ol], the IC50 came out at 0.58 nM. The molecule `OCC1(NCc2ccn3nc(-c4ccccn4)nc(Nc4ccncc4F)c23)CCCC1` [Example 244, {1-[({4-[(3-fluoropyridin-4-yl)amino]-2-(pyridin-2-yl)pyrrolo[2,1-f][1,2,4]triazin-5-yl}methyl)amino]cyclopentyl}methanol] showed an IC50 of 6.3 nM. Then `CN(C)C1CCC(NCc2ccn3nc(-c4ccccn4)nc(Nc4ccncc4F)c23)CC1` (stereo not drawn) [Example 245, 4-N-({4-[(3-fluoropyridin-4-yl)amino]-2-(pyridin-2-yl)pyrrolo[2,1-f][1,2,4]triazin-5-yl}methyl)-1-N, 1-N-dimethylcyclohexane-1,4-diamine], with 1 nM; and `Fc1cnccc1Nc1nc(-c2ccccn2)nn2ccc(CNCCCN3CCOCC3)c12` [Example 246, 3-fluoro-N-[5-({[3-(morpholin-4-yl)propyl]amino}methyl)-2-(pyridin-2-yl)pyrrolo[2,1-f][1,2,4]triazin-4-yl]pyridin-4-amine], with 3.9 nM. Molecule `Fc1cnccc1Nc1nc(-c2ccccn2)nn2ccc(CNCC3CCCO3)c12` (stereo not drawn) [Example 247, 3-fluoro-N-(5-{[(oxolan-2-ylmethyl)amino]methyl}-2-(pyridin-2-yl)pyrrolo[2,1-f][1,2,4]triazin-4-yl)pyridin-4-amine] gave an IC50 of 1 nM. For the molecule `Fc1cnccc1Nc1nc(-c2ccc(C(F)(F)F)cn2)nn2cccc12` [Example 248, 3-fluoro-N-{2-[5-(trifluoromethyl)pyridin-2-yl]pyrrolo[2,1-f][1,2,4]triazin-4-yl}pyridin-4-amine], the half-inhibitory concentration (IC50) stood at 70 nM. Compared with the last molecule, the IC50 is about 70-fold higher.

`COc1nc(-c2nc(Nc3ccncc3F)c3cccn3n2)cs1` [Example 249, 3-fluoro-N-[2-(2-methoxy-1,3-thiazol-4-yl)pyrrolo[2,1-f][1,2,4]triazin-4-yl]pyridin-4-amine] had an IC50 of 5.8 nM.

`CC(=O)Nc1cc(Nc2nc(-c3ccccn3)nn3ccc(CN4CCN(CCO)CC4)c23)ccn1` [Example 250, N-{4-[(5-{[4-(2-hydroxyethyl)piperazin-1-yl]methyl}-2-(pyridin-2-yl)pyrrolo[2,1-f][1,2,4]triazin-4-yl)amino]pyridin-2-yl}acetamide] came in with an IC50 of 1.2 nM.

`O[C@H]1CCN(Cc2ccn3nc(-c4cccc(C(F)F)n4)nc(Nc4ccncc4F)c23)C1` [Example 251, (3S)-1-({2-[6-(difluoromethyl)pyridin-2-yl]-4-[(3-fluoropyridin-4-yl)amino]pyrrolo[2,1-f][1,2,4]triazin-5-yl}methyl)pyrrolidin-3-ol] displayed an IC50 of 0.59 nM.

In the case of `Cc1cccc(-c2nc(Nc3ccncc3F)c3c(CN4CC[C@H](O)C4)ccn3n2)n1` [Example 252, (3S)-1-({4-[(3-fluoropyridin-4-yl)amino]-2-(6-methylpyridin-2-yl)pyrrolo[2,1-f][1,2,4]triazin-5-yl}methyl)pyrrolidin-3-ol], the IC50 is 0.49 nM.

Molecule `OCCN1CCN(Cc2ccn3nc(-c4cccc(C(F)F)n4)nc(Nc4ccncc4F)c23)CC1` [Example 253, 2-[4-({2-[6-(difluoromethyl)pyridin-2-yl]-4-[(3-fluoropyridin-4-yl)amino]pyrrolo[2,1-f][1,2,4]triazin-5-yl}methyl)piperazin-1-yl]ethan-1-ol] returned an IC50 of 1.2 nM. Against the preceding molecule, the IC50 is about 2.4-fold higher. Then `CC(=O)Nc1cc(Nc2nc(-c3cccc(C(F)(F)F)n3)nn3ccc(CNCC(C)(C)O)c23)ccn1` [Example 254, N-{4-[(5-{[(2-hydroxy-2-methylpropyl)amino]methyl}-2-[6-(trifluoromethyl)pyridin-2-yl]pyrrolo[2,1-f][1,2,4]triazin-4-yl)amino]pyridin-2-yl}acetamide], with 2 nM. Molecule `FC(F)(F)c1cccc(-c2nc(Nc3ccncn3)c3cccn3n2)n1` [Example 255, N-{2-[6-(trifluoromethyl)pyridin-2-yl]pyrrolo[2,1-f][1,2,4]triazin-4-yl}pyrimidin-4-amine] came in with an IC50 of 28 nM. `Fc1cc(Nc2nc(-c3cccc(C(F)(F)F)n3)nn3cccc23)ccn1` [Example 256, 2-fluoro-N-{2-[6-(trifluoromethyl)pyridin-2-yl]pyrrolo[2,1-f][1,2,4]triazin-4-yl}pyridin-4-amine] registered an IC50 of 250 nM. In turn, `Cc1cc(Nc2nc(-c3cccc(C(F)(F)F)n3)nn3cccc23)ccn1` [Example 257, 2-methyl-N-{2-[6-(trifluoromethyl)pyridin-2-yl]pyrrolo[2,1-f][1,2,4]triazin-4-yl}pyridin-4-amine] returned an IC50 of 660 nM. This IC50 lies about 2.6-fold higher than the previous one. Then `CCNc1cc(Nc2nc(-c3ccccn3)nn3ccc(CNCC(C)(C)O)c23)ccn1` [Example 258, 1-{[(4-{[2-(ethylamino)pyridin-4-yl]amino}-2-(pyridin-2-yl)pyrrolo[2,1-f][1,2,4]triazin-5-yl)methyl]amino}-2-methylpropan-2-ol], with 4.5 nM; and `Cc1cccc(-c2nc(Nc3ccncc3F)c3c(CN4CCN(CCO)CC4)ccn3n2)n1` [Example 259, 2-[4-({4-[(3-fluoropyridin-4-yl)amino]-2-(6-methylpyridin-2-yl)pyrrolo[2,1-f][1,2,4]triazin-5-yl}methyl)piperazin-1-yl]ethan-1-ol], with 0.93 nM. `Fc1cnccc1Nc1nc(-c2ncccc2F)nn2cccc12` [Example 260, 3-fluoro-N-[2-(3-fluoropyridin-2-yl)pyrrolo[2,1-f][1,2,4]triazin-4-yl]pyridin-4-amine] had an IC50 of 3.2 nM.

`Cc1ccc(F)c(-c2nc(Nc3ccncc3F)c3cccn3n2)n1` [Example 261, 3-fluoro-N-[2-(3-fluoro-6-methylpyridin-2-yl)pyrrolo[2,1-f][1,2,4]triazin-4-yl]pyridin-4-amine] returned an IC50 of less than 0.76 nM. `Fc1cnccc1Nc1nc(-c2cscn2)nn2cccc12` [Example 262, 3-fluoro-N-[2-(1,3-thiazol-4-yl)pyrrolo[2,1-f][1,2,4]triazin-4-yl]pyridin-4-amine] returned an IC50 of 8.2 nM.

`OCC(CO)NCc1ccn2nc(-c3ccccn3)nc(Nc3ccncc3F)c12` [Example 264, 2-[({4-[(3-fluoropyridin-4-yl)amino]-2-(pyridin-2-yl)pyrrolo[2,1-f][1,2,4]triazin-5-yl}methyl)amino]propane-1,3-diol] registered an IC50 of 1.7 nM. The result for `Fc1cnccc1Nc1nc(-c2ccccn2)nn2ccc(CNCC3CCCCN3)c12` (stereo not drawn) [Example 265, 3-fluoro-N-(5-{[(piperidin-2-ylmethyl)amino]methyl}-2-(pyridin-2-yl)pyrrolo[2,1-f][1,2,4]triazin-4-yl)pyridin-4-amine] reads 6.7 nM; that for `Fc1cnccc1Nc1nc(-c2ccccn2)nn2ccc(CNCC3CNC3)c12` [Example 266, N-(5-{[(azetidin-3-ylmethyl)amino]methyl}-2-(pyridin-2-yl)pyrrolo[2,1-f][1,2,4]triazin-4-yl)-3-fluoropyridin-4-amine], 10 nM. Then `Fc1cnccc1Nc1nc(-c2ccccn2)nn2ccc(CNC3CCCNC3)c12` (stereo not drawn) [Example 267, 3-fluoro-N-(5-{[(piperidin-3-yl)amino]methyl}-2-(pyridin-2-yl)pyrrolo[2,1-f][1,2,4]triazin-4-yl)pyridin-4-amine], with 2.4 nM; and `Fc1cnccc1Nc1nc(-c2ccccn2)nn2ccc(CNCC(F)(F)F)c12` [Example 268, 3-fluoro-N-[2-(pyridin-2-yl)-5-{[(2,2,2-trifluoroethyl)amino]methyl}pyrrolo[2,1-f][1,2,4]triazin-4-yl]pyridin-4-amine], with 1.1 nM.

Turning to `Fc1cnccc1Nc1nc(-c2ccccn2)nn2ccc(CNCCN3CCNCC3)c12` [Example 269, 3-fluoro-N-[5-({[2-(piperazin-1-yl)ethyl]amino}methyl)-2-(pyridin-2-yl)pyrrolo[2,1-f][1,2,4]triazin-4-yl]pyridin-4-amine], the IC50 came to 4.2 nM. Compared with the last molecule, the IC50 is about 3.8-fold higher. The result for `Fc1cnccc1Nc1nc(-c2ccccn2)nn2ccc(CNCCC3CCCN3)c12` (stereo not drawn) [Example 270, 3-fluoro-N-[2-(pyridin-2-yl)-5-({[2-(pyrrolidin-2-yl)ethyl]amino}methyl)pyrrolo[2,1-f][1,2,4]triazin-4-yl]pyridin-4-amine] reads 3.6 nM. Take `Fc1cnccc1Nc1nc(-c2ccccn2)nn2ccc(CNCC3CCC3)c12` [Example 271, N-(5-{[(cyclobutylmethyl)amino]methyl}-2-(pyridin-2-yl)pyrrolo[2,1-f][1,2,4]triazin-4-yl)-3-fluoropyridin-4-amine]: the IC50 stood at 1.2 nM.
